Results reported in PubChem BioAssay (NCI).
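GI50 marks 50% less growth. TGI: total growth inhibition.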

Tests used:
Test in all cases: NCI-60 cell line screen, 384-well format
SK-MEL-5 melanoma = test system: SK-MEL-5 melanoma
PC-3 prostate = test system: PC-3 prostate
HOP-92 NSCLC = test system: HOP-92 NSCLC
MDA-MB-468 breast = test system: MDA-MB-468 breast
OVCAR-5 ovarian = test system: OVCAR-5 ovarian
CCRF-CEM leukemia = test system: CCRF-CEM leukemia
MDA-MB-435 melanoma = test system: MDA-MB-435 melanoma
RPMI-8226 leukemia = test system: RPMI-8226 leukemia
HCC-2998 colon = test system: HCC-2998 colon
T-47D breast = test system: T-47D breast
786-0 renal = test system: 786-0 renal
MOLT-4 leukemia = test system: MOLT-4 leukemia
HCT-116 colon = test system: HCT-116 colon
UO-31 renal = test system: UO-31 renal
DU-145 prostate = test system: DU-145 prostate
KM12 colon = test system: KM12 colon
SN12C renal = test system: SN12C renal
ACHN renal = test system: ACHN renal
NCI-H460 NSCLC = test system: NCI-H460 NSCLC
HOP-62 NSCLC = test system: HOP-62 NSCLC
HL-60(TB) leukemia = test system: HL-60(TB) leukemia
HT29 colon = test system: HT29 colon
LOX IMVI melanoma = test system: LOX IMVI melanoma
HCT-15 colon = test system: HCT-15 colon
IGROV1 ovarian = test system: IGROV1 ovarian
SK-MEL-28 melanoma = test system: SK-MEL-28 melanoma
COLO 205 colon = test system: COLO 205 colon
NCI-H23 lung = test system: NCI-H23 lung
SK-MEL-2 melanoma = test system: SK-MEL-2 melanoma
SW-620 colon = test system: SW-620 colon
OVCAR-3 ovarian = test system: OVCAR-3 ovarian
NCI-H322M lung = test system: NCI-H322M lung
SF-295 CNS = test system: SF-295 CNS
SR leukemia = test system: SR leukemia
OVCAR-4 ovarian = test system: OVCAR-4 ovarian
SNB-19 CNS = test system: SNB-19 CNS
M14 melanoma = test system: M14 melanoma
UACC-257 melanoma = test system: UACC-257 melanoma
MDA-MB-231 breast = test system: MDA-MB-231 breast
U251 glioblastoma = test system: U251 glioblastoma
MCF7 breast = test system: MCF7 breast
CAKI-1 renal = test system: CAKI-1 renal
A549 NSCLC = test system: A549 NSCLC
RXF 393 renal = test system: RXF 393 renal
NCI-H226 lung = test system: NCI-H226 lung
NCI/ADR-RES ovarian = test system: NCI/ADR-RES ovarian
MALME-3M melanoma = test system: MALME-3M melanoma
SF-268 CNS = test system: SF-268 CNS
SK-OV-3 ovarian = test system: SK-OV-3 ovarian
K-562 leukemia = test system: K-562 leukemia
TK-10 renal = test system: TK-10 renal
UACC-62 melanoma = test system: UACC-62 melanoma
SF-539 CNS = test system: SF-539 CNS
A498 renal = test system: A498 renal
BT-549 breast = test system: BT-549 breast
OVCAR-8 ovarian = test system: OVCAR-8 ovarian

CCCC[C@@H](COC(=O)N(Cc1cccs1)Cc1cccs1)NC(=O)N[C@@H](CC(=O)OC)c1ccc2c(c1)OCO2
GI50 (SK-MEL-5 melanoma): 83 µM
TGI (SK-MEL-5 melanoma): > 100 µM
GI50 (PC-3 prostate): > 100 µM
TGI (PC-3 prostate): > 100 µM
GI50 (HOP-92 NSCLC): > 100 µM
TGI (HOP-92 NSCLC): > 100 µM
GI50 (MDA-MB-468 breast): > 100 µM
TGI (MDA-MB-468 breast): > 100 µM
GI50 (OVCAR-5 ovarian): > 100 µM
TGI (OVCAR-5 ovarian): > 100 µM
GI50 (CCRF-CEM leukemia): > 100 µM
TGI (CCRF-CEM leukemia): > 100 µM
GI50 (MDA-MB-435 melanoma): > 100 µM
TGI (MDA-MB-435 melanoma): > 100 µM
GI50 (RPMI-8226 leukemia): 2.87 µM
TGI (RPMI-8226 leukemia): 6.14 µM
GI50 (HCC-2998 colon): > 100 µM
TGI (HCC-2998 colon): > 100 µM
GI50 (T-47D breast): 50.5 µM
TGI (T-47D breast): > 100 µM
GI50 ([…]-0 renal): > 100 µM
TGI (786-0 renal): > 100 µM
GI50 (MOLT-4 leukemia): 2.28 µM
TGI (MOLT-4 leukemia): 4.54 µM
GI50 (HCT-116 colon): 7.28 µM
TGI (HCT-116 colon): > 100 µM
GI50 (UO-31 renal): 53.2 µM
TGI (UO-31 renal): > 100 µM
GI50 (DU-145 prostate): > 100 µM
TGI (DU-145 prostate): > 100 µM
GI50 (KM12 colon): > 100 µM
TGI (KM12 colon): > 100 µM
GI50 (SN12C renal): > 100 µM
TGI (SN12C renal): > 100 µM
GI50 (ACHN renal): > 100 µM
TGI (ACHN renal): > 100 µM
GI50 (NCI-H460 NSCLC): > 100 µM
TGI (NCI-H460 NSCLC): > 100 µM
GI50 (HOP-62 NSCLC): > 100 µM
TGI (HOP-62 NSCLC): > 100 µM
GI50 (HL-60(TB) leukemia): 14.6 µM
TGI (HL-60(TB) leukemia): > 100 µM
GI50 (HT29 colon): > 100 µM
TGI (HT29 colon): > 100 µM
GI50 (LOX IMVI melanoma): > 100 µM
TGI (LOX IMVI melanoma): > 100 µM
GI50 (HCT-15 colon): > 100 µM
TGI (HCT-15 colon): > 100 µM
GI50 (IGROV1 ovarian): > 100 µM
TGI (IGROV1 ovarian): > 100 µM
GI50 (SK-MEL-28 melanoma): > 100 µM
TGI (SK-MEL-28 melanoma): > 100 µM
GI50 (COLO 205 colon): > 100 µM
TGI (COLO 205 colon): > 100 µM
GI50 (NCI-H23 lung): 90.7 µM
TGI (NCI-H23 lung): > 100 µM
GI50 (SK-MEL-2 melanoma): > 100 µM
TGI (SK-MEL-2 melanoma): > 100 µM
GI50 (SW-620 colon): > 100 µM
TGI (SW-620 colon): > 100 µM
GI50 (OVCAR-3 ovarian): > 100 µM
TGI (OVCAR-3 ovarian): > 100 µM
GI50 (NCI-H322M lung): > 100 µM
TGI (NCI-H322M lung): > 100 µM
GI50 (SF-295 CNS): > 100 µM
TGI (SF-295 CNS): > 100 µM
GI50 (SR leukemia): 6.03 µM
TGI (SR leukemia): > 100 µM
GI50 (OVCAR-4 ovarian): > 100 µM
TGI (OVCAR-4 ovarian): > 100 µM
GI50 (SNB-19 CNS): > 100 µM
TGI (SNB-19 CNS): > 100 µM
GI50 (M14 melanoma): > 100 µM
TGI (M14 melanoma): > 100 µM
GI50 (UACC-257 melanoma): > 100 µM
TGI (UACC-257 melanoma): > 100 µM
GI50 (MDA-MB-231 breast): > 100 µM
TGI (MDA-MB-231 breast): > 100 µM
GI50 (U251 glioblastoma): > 100 µM
TGI (U251 glioblastoma): > 100 µM
GI50 (MCF7 breast): > 100 µM
TGI (MCF7 breast): > 100 µM
GI50 (CAKI-1 renal): > 100 µM
TGI (CAKI-1 renal): > 100 µM
GI50 (A549 NSCLC): > 100 µM
TGI (A549 NSCLC): > 100 µM
GI50 (RXF 393 renal): 5.08 µM
TGI (RXF 393 renal): > 100 µM
GI50 (NCI-H226 lung): > 100 µM
TGI (NCI-H226 lung): > 100 µM
GI50 (NCI/ADR-RES ovarian): 55.5 µM
TGI (NCI/ADR-RES ovarian): > 100 µM
GI50 (MALME-3M melanoma): > 100 µM
TGI (MALME-3M melanoma): > 100 µM
GI50 (SF-268 CNS): > 100 µM
TGI (SF-268 CNS): > 100 µM
GI50 (SK-OV-3 ovarian): > 100 µM
TGI (SK-OV-3 ovarian): > 100 µM
GI50 (K-562 leukemia): > 100 µM
TGI (K-562 leukemia): > 100 µM
GI50 (TK-10 renal): > 100 µM
TGI (TK-10 renal): > 100 µM
GI50 (UACC-62 melanoma): 65 µM
TGI (UACC-62 melanoma): > 100 µM
GI50 (SF-539 CNS): > 100 µM
TGI (SF-539 CNS): > 100 µM
GI50 (A498 renal): > 100 µM
TGI (A498 renal): > 100 µM
GI50 (BT-549 breast): > 100 µM
TGI (BT-549 breast): > 100 µM
GI50 (OVCAR-8 ovarian): > 100 µM
TGI (OVCAR-8 ovarian): > 100 µM
